This note sets out measurements from patent publication US20250179013A1, “INHIBITORS OF RNA HELICASE DHX9 AND USES THEREOF” (ACCENT THERAPEUTICS, INC., priority 2022, published 2025).

Molecules are shown by their SMILES.

The assay addresses T1, Human recombinant DHX9 protein (Homo sapiens, UniProt Q08211).
T1 construct: purchased Viva
Kind of assay: DHX9 ATPase assay (ADP-Glo biochemical assay). The following applies: for DHX9 Biochemical Max Inhibition: maximum inhibition in ATPase assay, 10 μM Aurintricarboxylic acid = 100%; for IC50: read-out: DHX9 Biochemical Inflection Point. Background: ADP-Glo turns the ADP formed in a reaction into a luminescent signal.

T1 sequence (Q08211 whole entry): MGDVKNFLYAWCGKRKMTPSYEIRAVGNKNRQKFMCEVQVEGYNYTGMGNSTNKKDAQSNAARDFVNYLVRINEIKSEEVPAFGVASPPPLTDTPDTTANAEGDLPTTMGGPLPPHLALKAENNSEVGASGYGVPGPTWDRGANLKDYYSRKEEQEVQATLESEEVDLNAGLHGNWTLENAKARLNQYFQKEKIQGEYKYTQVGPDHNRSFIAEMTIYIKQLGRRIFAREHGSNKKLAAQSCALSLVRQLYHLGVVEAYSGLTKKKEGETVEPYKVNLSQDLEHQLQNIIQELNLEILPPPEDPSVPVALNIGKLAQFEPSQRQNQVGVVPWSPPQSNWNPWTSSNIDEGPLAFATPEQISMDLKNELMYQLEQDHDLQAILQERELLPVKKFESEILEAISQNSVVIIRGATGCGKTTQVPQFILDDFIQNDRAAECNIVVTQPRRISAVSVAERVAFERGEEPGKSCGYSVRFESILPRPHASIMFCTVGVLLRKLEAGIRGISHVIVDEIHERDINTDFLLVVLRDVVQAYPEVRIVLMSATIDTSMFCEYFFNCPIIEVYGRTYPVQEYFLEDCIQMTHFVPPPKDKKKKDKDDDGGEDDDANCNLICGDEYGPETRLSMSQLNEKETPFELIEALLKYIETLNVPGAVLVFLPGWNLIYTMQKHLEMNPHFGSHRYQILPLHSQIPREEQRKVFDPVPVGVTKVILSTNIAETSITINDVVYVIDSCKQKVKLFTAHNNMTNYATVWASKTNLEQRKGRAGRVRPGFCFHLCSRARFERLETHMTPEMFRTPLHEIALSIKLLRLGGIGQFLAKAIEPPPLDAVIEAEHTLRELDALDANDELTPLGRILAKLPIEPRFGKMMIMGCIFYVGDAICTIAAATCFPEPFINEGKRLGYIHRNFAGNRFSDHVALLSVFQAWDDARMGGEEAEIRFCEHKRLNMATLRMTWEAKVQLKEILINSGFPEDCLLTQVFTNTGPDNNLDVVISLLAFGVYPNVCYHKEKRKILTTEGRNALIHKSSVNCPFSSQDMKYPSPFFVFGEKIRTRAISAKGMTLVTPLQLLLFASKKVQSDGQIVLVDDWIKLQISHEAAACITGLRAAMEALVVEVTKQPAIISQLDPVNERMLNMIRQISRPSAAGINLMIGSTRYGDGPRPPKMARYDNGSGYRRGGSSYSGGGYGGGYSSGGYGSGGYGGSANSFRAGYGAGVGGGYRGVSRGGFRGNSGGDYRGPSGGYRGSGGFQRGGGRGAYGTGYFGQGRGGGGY

As to `CS(=O)(=O)Nc1cccc(NC(=O)c2cc(C(=O)Nc3ccc(CCO)cc3)cs2)c1` [Example 149], the “DHX9 Biochemical Max Inhibition” value turned out to be 69.8% and the IC50 came out at 50.7 nM.
The like results for `Cc1cccc(-c2csc(C(=O)Nc3cccc(NS(C)(=O)=O)c3)c2)c1` [Example 47] were, in that order, 67.7% and 264 nM.
On to `COc1cccc(-c2csc(C(=O)Nc3cccc(NS(C)(=O)=O)c3)c2)c1C` [Example 67], for which the “DHX9 Biochemical Max Inhibition” value worked out at 70.1% and the IC50 worked out at 980 nM.
On the same counts, the results for `Cc1nnc(-c2ccc(C(=O)Nc3cccc(NS(C)(=O)=O)c3)cc2)o1` [Example 11] are 47.5% and 5650 nM.
The like results for `CS(=O)(=O)Nc1cccc(NC(=O)c2cc(C(=O)NCc3n[nH]c4ccccc34)cs2)c1` [Example 144] were, in that order, 65.9% and 146 nM.
On the same counts, the results for `CS(=O)(=O)Nc1cccc(NC(=O)c2cnn(Cc3ccccc3)c2)c1` [Example 35, 1-benzyl-N-(3-methanesulfonamidophenyl)pyrazole-4-carboxamide] are 69.3% and 1490 nM.
For the molecule `Cn1nc(C(=O)Nc2cccc(NS(C)(=O)=O)c2)cc1C1CCCC1` [Example 29], the “DHX9 Biochemical Max Inhibition” value is listed as 81.3% and the IC50 was found to be 1430 nM.
For the molecule `CS(=O)(=O)Nc1cccc(NC(=O)c2cc(Cc3ccccc3)cs2)c1` [Example 71], the “DHX9 Biochemical Max Inhibition” value was found to be 66.5% and the IC50 was found to be 1860 nM.
On the same counts, the results for `CS(=O)(=O)Nc1cccc(NC(=O)c2cc(C(=O)Nc3cc(-c4ccccc4)[nH]n3)cs2)c1` [Example 148] are 58.2% and 5360 nM.
The like results for `CS(=O)(=O)Nc1cccc(NC(=O)c2cc(C(=O)Nc3cccc(OC(F)(F)F)c3)cs2)c1` [Example 120] were, in that order, 70.4% and 50.5 nM.
The like results for `CS(=O)(=O)Nc1cccc(NC(=O)c2cc(C(=O)Nc3ccccc3CC#N)cs2)c1` [Example 138] were, in that order, 76.6% and 116 nM.
`CS(=O)(=O)Nc1cccc(NC(=O)c2ccc(S(=O)(=O)Nc3ccncc3)cc2)c1` [Example 27]: the “DHX9 Biochemical Max Inhibition” value stood at 63.8% and the IC50 turned out to be 1610 nM.
On the same counts, the results for `CS(=O)(=O)Nc1cccc(NC(=O)c2cc(C(=O)Nc3nc4ccccc4[nH]3)cs2)c1` [Example 146] are 71.2% and 38.7 nM.
On the same counts, the results for `CS(=O)(=O)Nc1cccc(NC(=O)c2cc(C(=O)Nc3cccc4c3CCO4)cs2)c1` [Example 123] are 68.3% and 59.2 nM.
For the molecule `CS(=O)(=O)Nc1cccc(NC(=O)c2ccc(-n3cccc3)cc2)c1` [Example 23], the “DHX9 Biochemical Max Inhibition” value was 51.4% and the IC50 is 943 nM.
On the same counts, the results for `CS(=O)(=O)Nc1cccc(NC(=O)c2cnn(-c3ncccn3)c2)c1` [Example 43] are 68.7% and 373 nM.
On the same counts, the results for `CS(=O)(=O)Nc1cccc(NC(=O)c2csc(N3CCCCC3)n2)c1` [Example 19] are 49.6% and 6330 nM.
The like results for `CC(C)Oc1ccc(NC(=O)c2csc(C(=O)Nc3cccc(NS(C)(=O)=O)c3)c2)cc1` [Example 118] were, in that order, 66.2% and 99.4 nM.
Consider `Cc1c(NC(=O)c2csc(C(=O)Nc3cccc(NS(C)(=O)=O)c3)c2)c(=O)n(-c2ccccc2)n1C` [Example 107], for which the “DHX9 Biochemical Max Inhibition” value was 74.6% and the IC50 turned out to be 168 nM.
The like results for `Cc1ccccc1-c1nc(C(=O)Nc2cccc(NS(C)(=O)=O)c2)cs1` [Example 8] were, in that order, 47.7% and 1760 nM.
On the same counts, the results for `Cc1nc(-c2cccc(NC(=O)c3csc(C(=O)Nc4cccc(NS(C)(=O)=O)c4)c3)c2)cs1` [Example 147] are 64.7% and 229 nM.
On the same counts, the results for `CC(C)Oc1cccc(NC(=O)c2csc(C(=O)Nc3cccc(NS(C)(=O)=O)c3)c2)c1` [Example 121] are 68.9% and 1070 nM.
Take `Cc1ccc(-c2csc(C(=O)Nc3cccc(NS(C)(=O)=O)c3)c2)cc1` [Example 48]: the “DHX9 Biochemical Max Inhibition” value amounted to 67.5% and the IC50 worked out at 105 nM.
The like results for `COCc1cccc(NC(=O)c2csc(C(=O)Nc3cccc(NS(C)(=O)=O)c3)c2)c1` [Example 134] were, in that order, 66.9% and 58 nM.
The like results for `COc1ccc(OC)c(CCNC(=O)c2csc(C(=O)Nc3cccc(NS(C)(=O)=O)c3)c2)c1` [Example 142] were, in that order, 72.6% and 167 nM.
On the same counts, the results for `COc1ccc(NC(=O)c2csc(C(=O)Nc3cccc(NS(C)(=O)=O)c3)c2)cc1` [Example 130] are 69.2% and 324 nM.
Regarding `CS(=O)(=O)Nc1cccc(NC(=O)c2csc(NC3CC3)n2)c1` [Example 13], the “DHX9 Biochemical Max Inhibition” value came out at 52.5% and the IC50 came to 2390 nM.
On the same counts, the results for `COc1ccc(NC(=O)c2csc(C(=O)Nc3cccc(NS(C)(=O)=O)c3)c2)cn1` [Example 106] are 72.3% and 67.9 nM.
The like results for `CS(=O)(=O)Nc1cccc(NC(=O)c2cc(C(=O)Nc3ccc(-c4ccncc4)cc3)cs2)c1` [Example 128] were, in that order, 64.6% and 146 nM.
Take `CS(=O)(=O)Nc1cccc(NC(=O)c2cc(-c3ccccc3)ccn2)c1` [Example 2]: the “DHX9 Biochemical Max Inhibition” value was found to be 50.4% and the IC50 is 7270 nM.
On the same counts, the results for `CS(=O)(=O)Nc1cccc(NC(=O)c2cc(C(=O)Nc3cccc(-c4cccnc4)c3)cs2)c1` [Example 133] are 70.3% and 171 nM.
On the same counts, the results for `Cc1nc(COc2ccc(C(=O)Nc3cccc(NS(C)(=O)=O)c3)cc2)cs1` [Example 22] are 71.7% and 1220 nM.
The like results for `CC(NC(=O)c1csc(C(=O)Nc2cccc(NS(C)(=O)=O)c2)c1)c1ccccc1` (stereo not drawn) [Example 110] were, in that order, 68.9% and 81.9 nM.
`CNC(=O)c1ccc(NC(=O)c2csc(C(=O)Nc3cccc(NS(C)(=O)=O)c3)c2)cc1` [Example 139]: the “DHX9 Biochemical Max Inhibition” value was determined as 68.9% and the IC50 came to 40.5 nM.
The like results for `CS(=O)(=O)Nc1cccc(NC(=O)c2cc(C(=O)NC3Cc4ccccc4C3)cs2)c1` [Example 112] were, in that order, 68.9% and 101 nM.
On the same counts, the results for `COc1cc(Cl)cc(NC(=O)c2csc(C(=O)Nc3cccc(NS(C)(=O)=O)c3)c2)c1` [Example 125] are 71.7% and 64.9 nM.
On the same counts, the results for `CS(=O)(=O)Nc1cccc(NC(=O)c2cccc(OCc3ccccc3)c2)c1` [Example 4] are 55.1% and 3050 nM.
Regarding `CS(=O)(=O)Nc1cccc(NC(=O)c2cc(C(=O)Nc3ccccc3Oc3ccccc3)cs2)c1` [Example 115], the “DHX9 Biochemical Max Inhibition” value stood at 75% and the IC50 was 436 nM.
The like results for `CS(=O)(=O)Nc1cccc(NC(=O)c2ccc(-c3ccccc3)cc2)c1` [Example 38] were, in that order, 38.6% and 345 nM.
On the same counts, the results for `CS(=O)(=O)Nc1cccc(NC(=O)c2cc(C(=O)Nc3ccc(OC(F)(F)F)cc3)cs2)c1` [Example 108] are 64.4% and 708 nM.
On the same counts, the results for `CS(=O)(=O)Nc1cccc(NC(=O)c2cc(C(=O)NCC3(O)CCCCC3)cs2)c1` [Example 105] are 70.3% and 210 nM.
For the molecule `CS(=O)(=O)Nc1cccc(NC(=O)c2ccc(-c3nnn[nH]3)cc2)c1` [Example 21], the “DHX9 Biochemical Max Inhibition” value amounted to 72.4% and the IC50 worked out at 3850 nM.
The like results for `CS(=O)(=O)Nc1cccc(NC(=O)c2cc(-c3ccccc3)c(C(=O)O)s2)c1` [Example 101, 5-[(3-methanesulfonamidophenyl)carbamoyl]-3-phenylthiophene-2-carboxylic acid] were, in that order, 79.1% and 54 nM.
The like results for `Cc1cc(C)n(Cc2ccc(C(=O)Nc3cccc(NS(C)(=O)=O)c3)o2)n1` [Example 34] were, in that order, 70.4% and 4850 nM.
The like results for `Cc1cc(C(=O)Nc2cccc(NS(C)(=O)=O)c2)nn1C1CCOCC1` [Example 17] were, in that order, 50.7% and 2540 nM.
Consider `Cc1ccc(Nc2cccc(C(=O)Nc3cccc(NS(C)(=O)=O)c3)c2)nn1` [Example 10], for which the “DHX9 Biochemical Max Inhibition” value is on record as 79.8% and the IC50 is 1540 nM.
On the same counts, the results for `CS(=O)(=O)Nc1cccc(NC(=O)c2nc(-c3ccccc3)cs2)c1` [Example 42] are 71.4% and 544 nM.
The like results for `CN(C)C(=O)c1ccc(NC(=O)c2csc(C(=O)Nc3cccc(NS(C)(=O)=O)c3)c2)cc1` [Example 114] were, in that order, 73.5% and 71.4 nM.
As to `CS(=O)(=O)Nc1cccc(NC(=O)c2ccc(OCc3ccccc3)cc2)c1` [Example 3], the “DHX9 Biochemical Max Inhibition” value is given as 44.3% and the IC50 was 1230 nM.
The like results for `CS(=O)(=O)Nc1cccc(NC(=O)c2cc(NCc3ccccc3)cs2)c1` [Example 155, 4-(benzylamino)-N-(3-(methylsulfonamido)phenyl)thiophene-2-carboxamide] were, in that order, 72.3% and 1010 nM.
Regarding `CS(=O)(=O)Nc1cccc(NC(=O)c2cc(C(=O)NC3CCc4ccccc43)cs2)c1` (stereo not drawn) [Example 136], the “DHX9 Biochemical Max Inhibition” value is given as 72.9% and the IC50 is 127 nM.
